Reference: patent publication US10231958B2, “Methods and compositions for enhancing chemotherapy” (THE BOARD OF REGENTS OF THE UNIVERSITY OF TEXAS SYSTEM, priority 2015, dated 2019)
“Also recorded” adds a separate entry of the source.

Columns and labels:
MEFs = assay: Gene expression microarray in MEFs; format: cell-based, mouse; conditions: 24 h
Description: For microarray, 7.5×10^6 Kc167 Drosophila cells or 5×10^6 wild-type MEFs were seeded in T-75 cell culture flask in complete growth medium one day before treatments. On the following day, the medium was replenished with fresh growth medium or medium consisting of MMS at 40 μg/mL. Cells were harvested and pelleted at different times post treatment (0, 1, 8, 24 and 72 h), washed using ice cold phosphate buffered saline (PBS) and the RNA was extracted using the RNeasy kit protocol (Qiagen). RNA integrity was assessed by denaturing formaldehyde agarose gel electrophoresis or by microanalysis (Agilent Bioanalyzer, Santa Clara, Calif.). Microarray service was provided by Expression Analysis Inc., Durham, N.C. Affymetrix GeneChip Drosophila Genome 2.0 Array was used for the experiment performed using Kc167 cells, and Affymetrix GeneChip Mouse Genome 430A 2.0 Array was used for experiment performed using MEFs. The microarray service provided by Expression Analysis Inc., included group comparison between experimental control and MMS treatment and time course analysis based on permutation analysis of differential expression (PADE). For statistical comparison, each experiment was performed in quadruplicate.

[1] = system: MAPKs (ERK1/2, JNK1/2 and p38) and ATF2; assay: Western blot of MAPK phosphorylation; format: cell-based; conditions: 8 h
Description: Western blot. Protein lysates were prepared using RIPA buffer containing 5% sodium deoxycholate, 0.1% SDS, 0.1% Igepal in PBS with a cocktail of protease and phosphatase inhibitors (1 mM PMSF, 1 mM sodium orthovanadate, 1 mM NaF, and 30 μL/mL aprotinin (Sigma-Aldrich, USA)) and clarified by centrifugation. Protein concentration was determined using Bradford Protein Assay Reagent (Biorad, Hercules, Calif.). Equal amounts of protein were resolved using 8-12% SDS polyacrylamide gel, transferred onto nitrocellulose membranes (Hybond-ECL, GE Healthcare Lifesciences, Piscataway, N.J.) and detected using Lumiglo system (Cell Signaling Technology, Calif.) and x-ray films. Primary antibodies included COX-2 (#4842), NRF2 (D1C9), p-JNK1/2 (Thr183/Tyr185, #4671), p-p38 (Thr180/Tyr182, #9216), p-ERK1/2 (Thr202/Tyr204, #9101), BiP/GRP78 (C50B12), IRE1a (14C10), CHOP (L63F7) and PERK (D11A8) from Cell Signaling Technology; p-IRE1a (Ser724; NB100-2323) from Novus Biologicals; GCLC (Ab41463), beta-actin (ab8227) and ATF6 (Ab37149) from Abcam; p-PERK (Thr 981, sc-32577) and ATF3 (C19) were purchased from Santa Cruz. All primary antibodies were used at 1:1000 dilutions and secondary antibodies were 1:3000 in TBS-T with 5% BSA.

IL8, MMP1, MMP3 and PGE2 = assay: ELISA of inflammatory mediators in culture medium; format: cell-based, human
Description: Quantification of MMP1 and MMP3 content in culture medium was assessed using RayBio-MMP3 and RayBio-MMP1 Elisa Kit (RayBiotech, Inc); IL8 was analyzed by Human IL-8 Elisa kit (Pierce Biotechnology). The levels of prostaglandin E2 (PGE2) were determined using the Prostaglandin E2 EIA Kit Monoclonal (Cayman Chemical Company). Culture media were diluted to fit within the standard curves. For conditioned media (CM) preparation for invasion and in vitro angiogenesis experiments, 12-well plated cells were treated with MMS (or MMS plus inhibitors) for 8 h in the presence of 10% FBS, twice washed with HBSS, and incubated with 700 μL drug/serum-free fresh medium for additional 12 h. Thereafter, the conditioned fresh medium was collected and directly used for migration and invasion experiments in order to reduce freezing associated loss of activity.

[2] = system: protein sulfhydryl (protein-SH) groups; assay: Protein sulfhydryl groups (dibromobimane assay); format: cell-based; conditions: 12 h treatment
Description: Protein reduced thiol groups (Protein-SH) were measured by dibromobimane assays with minor modifications (PMID:20463849). The 6-well plated cells (500,000 cells) were scraped in 0.6 mL PBS and 200 μL Perchloric acid (6 N) was added to precipitate proteins. The samples were incubated for 5 min in ice, centrifuged (14,000×g) Supernatants containing small peptides and glutathione were discarded and pellets were resuspended in 100 μL NaOH 0.1N, neutralized with 100 μL ice cold Perchloric acid (0.1 N), and 0.1 N PBS was added to keep pH constant. A stock solution of 4 mM dibromobimane in DMSO was added to a final concentration 40 μM, and incubated for 30 30 min at 37° C. Dibromobimane-protein fluorescence was measured at Ex=393 and, Em=477 nm.

[3] = system: NFκB-responsive firefly luciferase construct in MDA-MB231 cells; assay: NFκB gene reporter assay; format: cell-based, human
Description: (§1) Prior to transfection, cells were plated in 96-well plates to 80-90% confluence (100 μL antibiotic free-medium) after 24 h. When used, siRNA were incubated by reverse transfection during cells seeding. […] A mixture of non-inducible firefly luciferase construct and constitutively expressing Renilla luciferase construct (40:1) were used as negative controls. Approximately 24 h post-transfection, the medium was changed and the cells were treated for 12 h with alkylating agents (with/out 6 h pre-treatments). At the end of this period, medium was changed to drug-free fresh medium (to minimize the effect of alkylating toxicity on promoters activity) and cells were kept for an additional 12 h.

[4] = system: Intracellular glutathione levels; assay: Glutathione assay; format: cell-based
Description: Intracellular glutathione levels were measured using the Glutathione (GSH/GSSG/Total) Fluorometric Assay Kit (BioVision Incorporated, Calif.), following manufacturer protocol. Briefly, 1×10^6 cells were scraped in PBS and centrifuged. Pellets were resuspended in 100 μL Glutathione assay buffer. 60 μL of this homogenate was mixed with PCA (perchloric acid) and centrifuged. Supernatant containing small molecules including GSH were neutralized with KOH and 3 fractions were collected and separated to analyze reduced (GSH), oxidized (GSSG) and total glutathione forms (GSH+GSSG) by reaction with OPA probe (o-phthalaldehyde) in the presence or absence of GSH quencher or reducing agents depending on the compound to be determined. Fluorescence was monitored at Ex/Em=340/420 nm for 40 min. Glutathione forms were calculated and normalized by protein (Bradford's assay).

[5] = system: AP1-responsive firefly luciferase construct in MDA-MB231 cells; assay: AP-1 gene reporter assay; format: cell-based, human
Description: as §1

[6] = MDA-MB231, pre-incubation with inhibitor

Row | SMILES | up-regulation of CAT expression (MEFs) | phosphorylation of MAPK ([1]; MDA-MB231 and MEF) | production of IL-8, MMP-1 and MMP-3 (IL8, MMP1, MMP3 and PGE2; MDA-MB231 culture medium) | prostaglandin E2 (PGE2) in culture medium and COX-2 protein in lysates (IL8, MMP1, MMP3 and PGE2; human cancer cells, 12 h) | protein sulfhydryl residues [2] | activation of NFκB luciferase reporter ([3]; alkylating agent alone) | glutathione metabolites ([4]; higher levels of MMS, as early as 8 h) | total GSH ([4]; lower levels of MMS (40 μg/mL)) | activation of AP-1 luciferase reporter ([5]; alkylating agent alone) | effect on MMS-induced MAPK phosphorylation ([1]; MDA-MB231 cells) | effect on MMS/alkylation-induced IL8, MMP1, MMP3 and PGE2 secretion and COX-2 (IL8, MMP1, MMP3 and PGE2; MDA-MB231, 12 h) | effect on MMS-induced activation of NFκB reporter [3, 6] | effect on MMS-induced activation of AP-1 reporter [5, 6]
1 | COS(C)(=O)=O [MMS, methyl-methanesulfonate] | 2.7 fold | increased phosphorylation of the three MAPK | enhances the production of MMP1, MMP3 and IL8 | increased levels of prostaglandin E2 (PGE2) | deplete protein sulfhydryl residues | activated both NFκB and AP-1 luciferase reporter constructs | depleted glutathione metabolites | able to keep or even increase their total GSH | activated both NFκB and AP-1 luciferase reporter constructs | – | – | – | –
2 | CNC(=O)c1cc(Oc2ccc(NC(=O)Nc3ccc(Cl)c(C(F)(F)F)c3)cc2)ccn1 [sorafenib, 4-[4-[[4-chloro-3-(trifluoromethyl)phenyl]carbamoylamino]phenoxy]-N-methyl-pyridine-2-carboxamide] | – | – | – | – | – | – | – | – | – | blocked both MMS-induced phosphorylation of ERK1/2 and JNK1/2 as well as basal ERK1/2 | exerted the strongest effect in blocking alkylation-induced IL8, COX-2/PGE2, MMP1 and 3 | strong inhibitory effects on both promoters; also recorded: blocked NFκB and AP-1 promoter activation | strong inhibitory effects on both promoters; also recorded: blocked NFκB and AP-1 promoter activation
